SMILES strings stand for the structures.

T1 sequence (P17086 whole entry): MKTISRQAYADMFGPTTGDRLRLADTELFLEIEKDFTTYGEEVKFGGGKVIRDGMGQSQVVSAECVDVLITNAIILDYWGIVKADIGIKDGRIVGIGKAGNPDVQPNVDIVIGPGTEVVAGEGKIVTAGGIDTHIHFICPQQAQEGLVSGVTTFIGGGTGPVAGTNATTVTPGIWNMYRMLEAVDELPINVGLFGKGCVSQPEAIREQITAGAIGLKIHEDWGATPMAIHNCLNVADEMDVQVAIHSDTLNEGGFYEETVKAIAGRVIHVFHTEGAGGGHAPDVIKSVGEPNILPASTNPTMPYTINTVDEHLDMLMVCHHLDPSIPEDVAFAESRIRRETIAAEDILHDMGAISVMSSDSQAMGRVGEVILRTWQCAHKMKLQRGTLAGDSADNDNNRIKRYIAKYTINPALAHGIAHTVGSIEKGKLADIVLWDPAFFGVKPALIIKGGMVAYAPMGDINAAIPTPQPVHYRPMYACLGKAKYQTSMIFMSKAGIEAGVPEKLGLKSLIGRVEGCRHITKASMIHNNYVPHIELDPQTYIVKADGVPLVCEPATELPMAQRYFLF
T1 sequence (P17088 whole entry, further chain): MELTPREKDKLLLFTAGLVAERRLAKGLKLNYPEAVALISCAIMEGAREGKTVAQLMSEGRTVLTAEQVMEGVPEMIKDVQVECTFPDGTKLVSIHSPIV
T1 sequence (P17087 whole entry, further chain): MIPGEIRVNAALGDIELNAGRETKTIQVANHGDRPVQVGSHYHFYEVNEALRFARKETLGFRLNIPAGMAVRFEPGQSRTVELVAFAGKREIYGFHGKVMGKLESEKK

The first experiment concerns the target T1, Urease Purified from Proteus mirabilis (Pr-91) (Proteus mirabilis, UniProt P17086).
T1 construct: host or cells: Proteus mirabilis (Pr-91)
The experiment can be described thus: Inhibition of urease purified from Proteus mirabilis (Pr-91). The format is biochemical.
Details: not given
The source says: The Inhibition of Urease Purified from Proteus mirabilis (Pr-91)
Concentration of Compounds of Formula [drawing 5] for 50% Inhibition of Urease.
Molecule `NP(N)(=O)Nc1cccc(C(F)(F)F)c1` [3-Trifluoromethylphenyl, N-[3-(Trifluoromethyl)phenyl]phosphorotriamide] displayed an IC50 of 40 µM.

`Nc1ccc(NP(N)(N)=O)cc1` [4-Aminophenyl, N-(4-Aminophenyl)phosphorotriamide] displayed an IC50 of 16 µM.

`N#Cc1ccc(NP(N)(N)=O)cc1` [4-Cyanophenyl, N-(4-Cyanophenyl)phosphorotriamide]: the IC50 stood at 50 µM.

Turning to `NP(N)(=O)Nc1ccc([N+](=O)[O-])cc1` [4-Nitrophenyl, N-(4-Nitrophenyl)phosphorotriamide], the IC50 stood at 0.35 µM.

On to `NP(N)(=O)Nc1ccccc1` [Phenyl], for which the IC50 amounted to 13 µM.

Still in this experiment, the particulars now being: urease purified from Proteus mirabilis (Pr-91); read-out: Concentration of compound for 50% inhibition of urease.
On to `NP(N)(N)=O` [H], for which the IC50 was found to be 0.12 µM.

Source of the values: patent US4242325A, “Phosphorotriamides as urease inhibitors” (priority 1979, dated 1980).
